Reference: ChEMBL document CHEMBL1140931, “Discovery of the first selective inhibitor of excitatory amino acid transporter subtype 1” (J Med Chem, 2009)
Active and inactive are the calls of the source. The calls are words filed in the database; no cut-off is given here.

Assays:
[1] = molecular target: T1, Excitatory amino acid transporter 1 (Homo sapiens, UniProt P43003); test: Displacement of [3H]D-Asp from human EAAT1 receptor expressed in HEK293 cells
[2] = molecular target: Excitatory amino acid transporter 2 (Homo sapiens, UniProt P43004); test: Displacement of [3H]D-Asp from human EAAT2 receptor expressed in HEK293 cells
[3] = molecular target: T2, Excitatory amino acid transporter 3 (Homo sapiens, UniProt P43005); test: Displacement of [3H]D-Asp from human EAAT3 receptor expressed in HEK293 cells
T2 sequence (P43005 whole entry): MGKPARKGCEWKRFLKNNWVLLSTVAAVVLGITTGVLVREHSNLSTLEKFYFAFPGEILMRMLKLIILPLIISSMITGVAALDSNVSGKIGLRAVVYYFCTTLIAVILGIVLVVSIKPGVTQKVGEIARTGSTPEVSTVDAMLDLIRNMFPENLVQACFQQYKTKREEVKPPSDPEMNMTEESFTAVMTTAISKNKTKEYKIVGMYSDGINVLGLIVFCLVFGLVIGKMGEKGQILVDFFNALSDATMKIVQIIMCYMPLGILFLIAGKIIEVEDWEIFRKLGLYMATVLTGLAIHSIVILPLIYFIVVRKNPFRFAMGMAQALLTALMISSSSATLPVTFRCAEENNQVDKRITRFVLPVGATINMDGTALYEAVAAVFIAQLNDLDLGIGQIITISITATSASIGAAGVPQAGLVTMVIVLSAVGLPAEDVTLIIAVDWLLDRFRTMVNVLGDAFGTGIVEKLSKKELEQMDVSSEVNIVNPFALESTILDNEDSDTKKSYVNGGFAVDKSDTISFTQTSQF

[4] = molecular target: T1, Excitatory amino acid transporter 1; test: Activity of human EAAT1 expressed in HEK293 cells up to 100 uM; assay type: cell-based
[5] = molecular target: T1, Excitatory amino acid transporter 1; test: Activity at human EAAT1 expressed in HEK293 cells assessed as inhibition of Glu-induced fluorescent response by FLIPR membrane potential blue assay
[6] = molecular target: T3, Excitatory amino acid transporter 1 (Rattus norvegicus, UniProt P24942); test: Activity at rat EAAT1 expressed in TSA201 cells assessed as inhibition of Glu-induced fluorescent response by FLIPR membrane potential blue assay; assay type: cell-based
T3 sequence (P24942 whole entry): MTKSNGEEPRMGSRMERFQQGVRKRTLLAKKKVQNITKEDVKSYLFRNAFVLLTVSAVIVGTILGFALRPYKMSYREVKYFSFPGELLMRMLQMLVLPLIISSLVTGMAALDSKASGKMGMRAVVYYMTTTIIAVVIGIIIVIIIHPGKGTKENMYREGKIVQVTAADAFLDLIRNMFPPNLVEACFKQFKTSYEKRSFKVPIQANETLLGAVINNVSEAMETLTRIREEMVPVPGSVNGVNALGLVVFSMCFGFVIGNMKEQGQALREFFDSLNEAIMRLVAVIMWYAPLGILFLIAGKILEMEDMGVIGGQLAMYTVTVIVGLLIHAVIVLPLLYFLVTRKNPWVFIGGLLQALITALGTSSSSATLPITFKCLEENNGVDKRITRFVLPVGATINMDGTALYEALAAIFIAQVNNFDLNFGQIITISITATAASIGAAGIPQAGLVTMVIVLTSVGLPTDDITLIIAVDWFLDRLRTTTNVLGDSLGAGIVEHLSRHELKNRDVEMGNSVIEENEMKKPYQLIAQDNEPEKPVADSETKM

[7] = molecular target: T4, Excitatory amino acid transporter 3 (Homo sapiens) (UniProt P43005); test: Activity of human EAAT3 expressed in HEK293 cells up to 100 uM; assay type: cell-based
T4 sequence (whole entry): T2 sequence (P43005 whole entry)

Sequence of Excitatory amino acid transporter 2 (P43004 whole entry): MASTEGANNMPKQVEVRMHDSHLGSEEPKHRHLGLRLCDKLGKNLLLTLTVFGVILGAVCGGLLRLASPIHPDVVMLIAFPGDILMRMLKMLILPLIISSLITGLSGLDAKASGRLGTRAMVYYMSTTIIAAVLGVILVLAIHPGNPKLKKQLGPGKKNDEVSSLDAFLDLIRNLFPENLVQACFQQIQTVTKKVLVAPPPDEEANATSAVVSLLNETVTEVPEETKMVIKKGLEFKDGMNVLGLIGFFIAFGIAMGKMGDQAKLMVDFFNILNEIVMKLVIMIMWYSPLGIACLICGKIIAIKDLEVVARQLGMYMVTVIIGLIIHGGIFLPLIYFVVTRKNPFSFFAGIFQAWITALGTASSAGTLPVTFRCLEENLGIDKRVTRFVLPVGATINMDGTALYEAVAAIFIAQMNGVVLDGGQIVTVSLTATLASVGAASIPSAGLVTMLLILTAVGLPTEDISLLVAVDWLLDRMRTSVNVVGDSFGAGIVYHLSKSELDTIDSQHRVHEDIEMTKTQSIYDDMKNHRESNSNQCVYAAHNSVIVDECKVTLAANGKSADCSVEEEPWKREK
T1 sequence (P43003 whole entry): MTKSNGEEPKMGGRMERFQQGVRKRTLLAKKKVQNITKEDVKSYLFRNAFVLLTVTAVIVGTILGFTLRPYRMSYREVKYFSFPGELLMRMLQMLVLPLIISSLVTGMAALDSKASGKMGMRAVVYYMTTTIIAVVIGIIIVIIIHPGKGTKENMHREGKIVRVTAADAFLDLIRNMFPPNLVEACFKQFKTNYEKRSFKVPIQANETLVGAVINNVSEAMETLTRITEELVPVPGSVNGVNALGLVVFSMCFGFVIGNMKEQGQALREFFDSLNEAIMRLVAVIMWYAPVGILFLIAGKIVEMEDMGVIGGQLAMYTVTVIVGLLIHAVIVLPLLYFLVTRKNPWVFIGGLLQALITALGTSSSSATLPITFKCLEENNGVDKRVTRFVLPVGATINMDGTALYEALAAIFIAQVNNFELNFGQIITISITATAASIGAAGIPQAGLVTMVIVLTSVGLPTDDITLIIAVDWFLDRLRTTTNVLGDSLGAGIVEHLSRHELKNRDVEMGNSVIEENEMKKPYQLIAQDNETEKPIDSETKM

Structure (SMILES)	IC50 [1] [µM]	IC50 [2] [µM]	IC50 [3] [µM]	Activity [4]	IC50 [5] [µM]	IC50 [6] [µM]	Activity [7]	IC50 ([2]; hek293) [µM]	IC50 ([3]; hek293) [µM]
COc1cc(C2C(C#N)=C(N)OC3=C2C(=O)CC(c2ccccc2)C3)ccc1OCc1c(F)cccc1Cl (centres undefined)	4.3	> 100	> 100						
N#CC1=C(N)OC2=C(C(=O)CC(c3ccccc3)C2)C1c1cc(Br)cs1 (centres undefined)	4.7	> 100	> 100						
N[C@@H](COS(=O)(=O)O)C(=O)O	100		100						
N#CC1=C(N)OC2=C(C(=O)CC(c3ccccc3)C2)C1c1ccccc1F (centres undefined)	4.7	> 100	> 100						
N#CC1=C(N)OC2=C(C(=O)CC(c3ccco3)C2)C1c1ccccc1 (centres undefined)	7.3	> 316	> 316						
COc1ccc(C2C(C#N)=C(N)OC3=C2C(=O)CC(c2ccco2)C3)cc1OC(=O)N1CCOCC1 (centres undefined)	100	> 316	> 316						
CSc1ccc(C2C(C#N)=C(N)OC3=C2C(=O)CC(c2ccccc2)C3)cc1 (centres undefined)	2.7	> 100	> 100						
N#CC1=C(N)OC2=C(C(=O)CC(c3ccccc3)C2)C1c1ccc2c(c1)OCO2 (centres undefined)	4	> 316	> 316						
N#CC1=C(N)OC2=C(C(=O)CC(c3ccccc3)C2)C1c1cccs1 (centres undefined)	14	> 100	> 100						
N#CC1=C(N)OC2=C(C(=O)CC(c3ccccc3)C2)C1c1c[nH]c2ccccc12 (centres undefined)	> 100	> 100	> 100					> 100	> 100

Now from value to compound:

IC50 [1] [µM]	IC50 [2] [µM]	IC50 [3] [µM]	Activity [4]	IC50 [5] [µM]	IC50 [6] [µM]	Activity [7]	IC50 ([2]; hek293) [µM]	IC50 ([3]; hek293) [µM]	Structure (SMILES)
7.4	> 100	> 100							N#CC1=C(N)OC2=C(C(=O)CC(c3ccccc3)C2)C1c1cccc2ccccc12 (centres undefined)
3.2	> 316	> 316							COc1ccc(C2C(C#N)=C(N)OC3=C2C(=O)CC(c2ccccc2Cl)C3)cc1 (centres undefined)
2.1	> 100	> 100							N#CC1=C(N)OC2=C(C(=O)CC(c3ccccc3)C2)C1c1ccc(-c2ccccc2)cc1 (centres undefined)
30	> 316	> 316							N#CC1=C(N)OC2=C(C(=O)CC(c3ccccc3)C2)C1c1cccnc1 (centres undefined)
3.6	> 100	> 100							N#CC1=C(N)OC2=C(C(=O)CC(c3ccccc3)C2)C1c1ccc2ccccc2c1 (centres undefined)
> 300	> 316	> 316							N#CC1=C(N)OC2=C(C1)C(=O)CC(c1ccccc1)C2 (centres undefined)
9.9	> 316	> 316							N#CC1=C(N)OC2=C(C(=O)CC(c3cccs3)C2)C1c1ccc([N+](=O)[O-])cc1 (centres undefined)
30	> 100	> 100							N#CC1=C(N)OC2=C(C(=O)CC(c3ccccc3)C2)C1Cc1ccccc1 (centres undefined)
~50	> 100	> 100							COc1cccc(C2C(C#N)=C(N)OC3=C2C(=O)CC(c2ccccc2)C3)c1OC (centres undefined)
	> 100	> 100							COc1ccc(C2C(C#N)=C(N)OC3=C2C(=O)CC(c2ccccc2)C3)cc1 (centres undefined)
> 300	> 316	> 316							CC1CC(=O)C2=C(C1)OC(N)=C(C#N)C2c1ccc2c(c1)OCO2 (centres undefined)
3.6	> 100	> 100							N#CC1=C(N)OC2=C(C(=O)CC(c3ccccc3)C2)C1c1ccc([N+](=O)[O-])cc1 (centres undefined)
> 300	> 316	> 316							N#CC1=C(N)OC2=C(C(=O)CCC2)C1c1ccccc1F (centres undefined)
0.66	> 316	> 316	inactive	0.12	0.97	inactive			COc1ccc(C2C(C#N)=C(N)OC3=C2C(=O)CC(c2cccc4ccccc24)C3)cc1 (centres undefined)
9.2	> 316	> 316							CC1C(C#N)=C(N)OC2=C1C(=O)CC(c1ccccc1)C2 (centres undefined)
